Data as given in patent US11161839B2, “2-quinolone derived inhibitors of BCL6” (Cancer Research Technology Limited, priority 2017, dated 2021).

Tests used:
[1] = system: SU-DHL-4 cells; assay: 14-day cell proliferation assay (CellTiter Glo); format: cell-based; settings: Homo sapiens, SU-DHL4 cells, 14 days
Protocol: (§1) The volume of medium containing 2000 cells in the control well was calculated and this volume of cells was transferred from every well of the assay plates to the corresponding well of the fresh plates containing compound. After 14 days, CellTiter Glo reagent (Promega) was added to the medium in each well of the assay plate at a ratio of 1:2, mixed on a plate shaker, then incubated at room temperature for 10 minutes. Luminescence was measured using an Envision plate reader (Perkin Elmer) and the relative luminescence at each compound concentration, compared to DMSO alone, was calculated. IC50 were determined using a 4-parameter curve fit in Dotmatics (Bishops Stortford, UK).

[2] = target: human BCL6 BTB domain (Trx-6xHis-BCL6) (Homo sapiens (Human), UniProt P41182); assay: HTRF in vitro assay (BCL6 BTB domain / BCOR-AF633 peptide); format: binding; settings: further generated data (Table 1b), 1 nM Trx-6xHis-BCL6, 0.5 nM anti-6xHis-Terbium cryptate
[3] = target: BCL6-NCOR2(SMRT) corepressor protein-protein interaction (Homo sapiens (Human), UniProt P41182); assay: NanoBRET cell assay in transfected HEK293T cells; format: cell-based; settings: further generated data (Table 2b); HEK293T cells, 6 hr; read-out: NanoBRET cell pIC50 (converted)
[4] = target: BCL6 (Homo sapiens (Human), UniProt P41182); assay: assays described in the Examples section (not specified which); settings: tested compounds outside desired/preferred activity
Protocol: DC50 values (compound concentration at which 50% of endogenous BCL6 protein is degraded) were determined in SUDHL-4 cells (American Type Culture Collection) in an immunofluorescence-based assay using an InCell2200 high content imaging system (GE Healthcare). Briefly, 40 μL of lymphoma suspension cells cultured in RPMI 1640-10% FBS (Sigma-Aldrich or PAN Biotech UK Ltd) were platted on fibronectin (Sigma catalogue F1141)-coated 384 well Cell Carrier Ultra plate (Perkin Elmer catalogue 6057300) at 1.2 104 cells/well. After 20 hours cell culture at 37° C./C02 incubator, compounds were dispensed in the cell culture plate using ECHO550 acoustic dispenser (Labcyte, Inc.), as 8 point-concentration response (ranging from 5 nM to 10 μM) in 0.67% final DMSO concentration. Cells were incubated with compound for 2 hours at 37° C./C02 incubator followed by fixation in 4.5% formaldehyde (37% formaldehyde solution, Sigma catalogue F8775) at room temperature for 15 min. After fixing, cells were washed in 1×TBS (Tris Buffer Saline) using a Power Washer 384 (Tecan Group Ltd). Blocking and cell permeabilisation were performed by incubating the fixed cells for 1 hour at room temperature in 1×TBS, 5% BSA, 1% Triton X100, followed by three washes on PW384 plate washer. Primary and secondary antibodies were prepared in 1×TBS, 1% BSA, 0.2% Triton X100. BCL6 expression was detected by incubating the cells for 1 h30 with BCL6 rabbit polyclonal antibody (Sigma Catalogue HPA004899) at 1:250, 0.8 μg/ml, followed by 1 hour in chicken anti-Rabbit Alexa 488 conjugated antibody (Life Technology) at 1:500. After incubation in each antibody, cells were washes four times in 1×TBS-0.05% tween on PW384 plate washer. Cells were finally incubated for 60 min with nuclear staining RedDot2 dye (Biotium) at 0.5× the stock concentration in 1×TBS. BCL6 expression in the absence or presence of compound was detected on InCell2200 with 20× objective and quantified on InCell Analyser 3.7.2 workstation (GE Healthcare). The % response at each concentration was calculated by normalising BCL6 expression in the presence of compound to the appropriate high (DMSO) and low (DMSO with 7 μM CCT369260) controls.
as §1

| GI50 [1] [nM] | HTRF pIC50 [2] | IC50 [3] [nM] | activity in the assays described in the Examples section [4] | IC50 ([2]; read-out: HTRF pIC50 (converted)) [nM] | Compound |
| --- | --- | --- | --- | --- | --- |
| 2130 | 6.81 | 1380 |  |  | Cn1c(=O)cc(NC(C)(C)c2ncccn2)c2cc(Nc3ccnc(Cl)c3Cl)ccc21 [Example 6b, 6-((2,3-dichloropyridin-4-yl)amino)-1-methyl-4-((2-(pyrimidin-2-yl)propan-2-yl)amino)quinolin-2(1H)-one] |
|  |  |  | did not exhibit the desired activity |  | CNC(=O)CNc1cc(=O)[nH]c2ccc(Nc3ccnc(Cl)c3C#N)cc12 [2-((6-((2-chloro-3-cyanopyridin-4-yl)amino)-2-oxo-1,2-dihydroquinolin-4-yl)amino)-N-methylacetamide] |
| 440 | 6.99 | 676 |  |  | C[C@@H]1CN(c2ncc(Cl)c(Nc3ccc4c(c3)c(NC(C)(C)c3ncccn3)nc(=O)n4C)n2)C[C@H](C)O1 [Example 26f, 6-[[5-chloro-2-[(2R,6S)-2,6-dimethylmorpholin-4-yl]pyrimidin-4-yl]amino-1-methyl-4-[(1-methyl-1-pyrimidin-2-yl)ethyl)amino]quinazolin-2-one:formic acid (1:1)] |
| 290 | 7.39 | 490 |  |  | CC(Nc1cc(=O)n(C)c2ccc(Nc3ccnc(Cl)c3C#N)cc12)c1ncc(N2C[C@@H](C)O[C@@H](C)C2)cn1 (stereo partly drawn) [Example 10b, 2-chloro-4-((4-((1-(5-((2S,6R)-2,6-dimethylmorpholino)pyrimidin-2-yl)ethyl)amino)-1-methyl-2-oxo-1,2-dihydroquinolin-6-yl)amino)nicotinonitrile] |
| 1340 | 7.58 | 912 |  |  | CC(Nc1cc(=O)n(C)c2ccc(Nc3ccnc(Cl)c3C#N)cc12)c1ncc(C2CCOCC2)cn1 (stereo not shown) [Example 10w, 2-chloro-4-[[1-methyl-2-oxo-4-[1-(5-tetrahydropyran-4-ylpyrimidin-2-yl)ethylamino]-6-quinolyl]amino]pyridine-3-carbonitrile] |
| 1720 |  |  |  |  | CC(Nc1cc(=O)n(C)c2ccc(Nc3ccnc(Cl)c3C#N)cc12)c1ncc(C2CC2)cn1 (stereo not shown) [Example 10e, 2-chloro-4-((4-((1-(5-cyclopropylpyrimidin-2-yl)ethyl)amino)-1-methyl-2-oxo-1,2-dihydroquinolin-6-yl)amino)nicotinonitrile] |
|  |  |  | not to exhibit the preferred activity |  | Cn1c(=O)cc(NCc2ncccn2)c2cc(Nc3ccnc(Cl)c3C#N)ccc21 [2-chloro-4-[[1-methyl-2-oxo-4-(pyrimidin-2-ylmethylamino)-6-quinolyl]amino]pyridine-3-carbonitrile] |
|  |  |  | did not exhibit the desired activity |  | CC(Nc1cc(=O)[nH]c2ccc(Nc3ccnc(Cl)c3C#N)cc12)c1cnn(C)c1 (stereo not shown) [2-chloro-4-((4-((1-(1-methyl-1H-pyrazol-4-yl)ethyl)amino)-2-oxo-1,2-dihydroquinolin-6-yl)amino)nicotinonitrile] |
| 460 | 7.45 | 490 |  |  | CC(Nc1cc(=O)n(C)c2ccc(Nc3ccnc(Cl)c3C#N)cc12)c1ncc(-c2cnn(C)c2)cn1 (stereo not shown) [Example 10c, 2-chloro-4-((1-methyl-4-((1-(5-(1-methyl-1H-pyrazol-4-yl)pyrimidin-2-yl)ethyl)amino)-2-oxo-1,2-dihydroquinolin-6-yl)amino)nicotinonitrile] |
| 450 | 7.50 | 240 |  |  | Cn1c(=O)cc(NC(C)(C)c2ncccn2)c2cc(Nc3cc(C(=O)N4CC(C(F)(F)F)C4)nc(Cl)c3C#N)ccc21 [Example 8d, 2-chloro-4-((1-methyl-2-oxo-4-((2-(pyrimidin-2-yl)propan-2-yl)amino)-1,2-dihydroquinolin-6-yl)amino)-6-(3-(trifluoromethyl)azetidine-1-carbonyl)nicotinonitrile] |
|  |  |  | did not exhibit the desired activity |  | Cn1c(=O)cc(NC2CCCNC2=O)c2cc(Nc3ccnc(Cl)c3C#N)ccc21 (stereo not shown) [2-chloro-4-((1-methyl-2-oxo-4-((2-oxopiperidin-3-yl)amino)-1,2-dihydroquinolin-6-yl)amino)nicotinonitrile] |
|  |  |  | not to exhibit the preferred activity |  | CN1CCC(Nc2cc(=O)n(C)c3ccc(Nc4ccnc(Cl)c4C#N)cc23)C1=O (stereo not shown) [2-chloro-4-((1-methyl-4-((1-methyl-2-oxopyrrolidin-3-yl)amino)-2-oxo-1,2-dihydroquinolin-6-yl)amino)nicotinonitrile] |
|  |  |  | did not exhibit the desired activity |  | CC(CN(C)C)Nc1cc(=O)n(C)c2ccc(Nc3ccnc(Cl)c3C#N)cc12 (stereo not shown) [2-chloro-4-((4-((1-(dimethylamino)propan-2-yl)amino)-1-methyl-2-oxo-1,2-dihydroquinolin-6-yl)amino)nicotinonitrile] |
| 340 |  |  |  | 251 | CC(Nc1nc(=O)n(C)c2ccc(Nc3nc(N4C[C@@H](C)C(F)(F)[C@@H](C)C4)ncc3Cl)cc12)c1ncccn1 (mixture of isomers) [Example 12h, rac-6-((5-chloro-2-((3R,5S)-4,4-difluoro-3,5-dimethylpiperidin-1-yl)pyrimidin-4-yl)amino)-1-methyl-4-((1-(pyrimidin-2-yl)ethyl)amino)quinazolin-2(1H)-one] |
| 760 | 6.54 | 891 |  |  | Cc1cc(C)n(-c2ncc(Cl)c(Nc3ccc4c(c3)c(N[C@H](C)C3CC3)cc(=O)n4C)n2)n1 [Example 14c, (R)-6-((5-chloro-2-(3,5-dimethyl-1H-pyrazol-1-yl)pyrimidin-4-yl)amino)-4-((1-cyclopropylethyl)amino)-1-methylquinolin-2(1H)-one] |
| 110 | 6.73 |  |  |  | C[C@@H]1CN(c2ncc(Cl)c(Nc3ccc4c(c3)c(NC(C)(C)c3ncccn3)nc(=O)n4C)n2)C[C@H](C)C1(F)F [Example 25a, 6-((5-chloro-2-((3R,5S)-4,4-difluoro-3,5-dimethylpiperidin-1-yl)pyrimidin-4-yl)amino)-1-methyl-4-((2-(pyrimidin-2-yl)propan-2-yl)amino)quinazolin-2(1H)-one] |
| 1480 | 7.33 | 589 |  |  | CC(Nc1cc(=O)n(C)c2ccc(Nc3ccnc(Cl)c3C#N)cc12)c1ncc(N2CCOC(C(F)(F)F)C2)cn1 (stereo not shown) [Example 10d, 2-chloro-4-((1-methyl-2-oxo-4-((1-(5-(2-(trifluoromethyl)morpholino)pyrimidin-2-yl)ethyl)amino)-1,2-dihydroquinolin-6-yl)amino)nicotinonitrile] |
|  |  |  | not to exhibit the preferred activity |  | CCNc1cc(=O)n(C)c2ccc(Nc3ccnc(Cl)c3C#N)nc12 [2-chloro-4-((8-(ethylamino)-5-methyl-6-oxo-5,6-dihydro-1,5-naphthyridin-2-yl)amino)nicotinonitrile] |
|  |  |  | not to exhibit the preferred activity |  | CC(Nc1cc(=O)n(C)c2ccc(Nc3nc(N4C[C@H](C)C[C@H](C)C4)nc(C(F)(F)F)c3Cl)cc12)c1ncccn1 (stereo partly drawn) [6-((5-chloro-2-((3S,5R)-3,5-dimethylpiperidin-1-yl)-6-(trifluoromethyl)pyrimidin-4-yl)amino)-1-methyl-4-((1-(pyrimidin-2-yl)ethyl)amino)quinolin-2(1H)-one] |
